The values that follow come from the NIST ThermoML archive (doi:10.1016/j.tca.2006.02.036).

For data set [1] the following is noted: Crystal 2; Adiabatic calorimetry.
The nature of data set [2]: Molar enthalpy of transition or fusion. The settings on record: Crystal 2; DSC.

± gives the expanded uncertainty stated by the source.

In the case of `C1C2CC3CC1CC(C2)C3` [adamantane], the Triple point temperature in data set [1] worked out at 208 ± 0.18 K. Besides, the “Molar enthalpy of transition or fusion” value in data set [2] worked out at 0.739 ± 0.043 kcal/mol.
